Experimental findings from ChEMBL document CHEMBL5215012, “Daphnepedunins A-F, Anti-HIV Macrocyclic Daphnane Orthoester Diterpenoids from Daphne pedunculata” (J Nat Prod, 2022) are described below.

The subject of data set [1] is Human immunodeficiency virus 1. The experiment in a line: Anti-HIV activity against HIV-1 NL4-3 Nanoluc-sec virus infected in human MT4 cells assessed as viral growth inhibition by measuring luciferase activity measured after 3 days post-infection by Nano-Glo luciferase assay. The data set is classed as functional, organism-based. The conditions noted are these: Human immunodeficiency virus 1, NL4-3, MT4, 72 h.

In a further data set the test system is MT4. The experiment in a line: Cytotoxicity against human MT4 cells assessed as reduction in cell viability by celltiter-glo luminescent cell viability assay. The data set is classed as toxicity, cell-based.

The IC50 is the concentration needed to halve the response being measured. The term CC50 denotes the concentration giving 50% cytotoxicity. Consider `C=C(C)[C@]12C[C@@H](C)[C@]34OC5(CCCCCCC[C@H](C)[C@@H]6[C@@H]3[C@]3(O[C@]6(C)OC3=O)[C@H](O)[C@@]3(CO)O[C@H]3[C@H]4[C@H]1O5)O2`, for which, in data set [1], the IC50 was 187 nM. Moreover, in the data set with MT4, the CC50 was greater than 38500 nM.

For the compound `C=C(C)[C@]12C[C@@H](C)[C@]34OC5(CCCCCCC[C@@H](C)[C@@H]6[C@@H]3[C@]3(O[C@]6(C)OC3=O)[C@H](O)[C@@]3(CO)O[C@H]3[C@H]4[C@H]1O5)O2`, the IC50 in data set [1] came to 229 nM.

On to `C=C(C)[C@]12C[C@@H](COC(=O)c3ccccc3)[C@]34OC5(CCCCCCC[C@H](C)[C@@H]6[C@@H]3[C@]3(O[C@]6(C)OC3=O)[C@H](O)[C@@]3(CO)O[C@H]3[C@H]4[C@H]1O5)O2`, for which, in data set [1], the IC50 came out at 930 nM. For the same compound, the CC50 in the data set with MT4 stood at 18800 nM.

Turning to `C=C(C)[C@]12C[C@@H](COC(=O)c3ccccc3)[C@@]34OC5(O[C@@H]1[C@@H]3[C@@H]1O[C@]1(CO)[C@@H](O)[C@@]1(O)[C@H]4[C@H]([C@H](C)[C@@H]1OC(=O)c1ccccc1)[C@H](C)CCCCCC[C@H]5O)O2`, in data set [1], the IC50 amounted to 0.15 nM. Moreover, in the data set with MT4, the half-maximal cytotoxic concentration (CC50) was greater than 6500 nM.

As for `C=C(C)[C@]12C[C@@H](COC(=O)c3ccccc3)[C@@]34OC5(CCCCCCC[C@@H](C)[C@H]6[C@H](C)C(=O)[C@@](O)([C@H](O)[C@@]7(CO)O[C@H]7[C@H]3[C@H]1O5)[C@@H]64)O2`, the IC50 in data set [1] came out at 71 nM. In the data set with MT4, the CC50 was greater than 38500 nM.

With `C=C(C)[C@]12C[C@@H](C)[C@@]34O[C@]5(CCCCCCC[C@H](C)[C@H]6[C@H](C)C(=O)[C@@](O)([C@H](O)[C@@]7(CO)O[C@H]7[C@H]3[C@H]1O5)[C@@H]64)O2`, the IC50 in data set [1] came to 81.7 nM.

In the case of `C=C(C)[C@]12C[C@@H](C)[C@]34OC5(CCCCCCC[C@H](C)[C@@H]6[C@@H]3[C@@](O)(C(=O)[C@@]6(C)O)[C@H](O)[C@@]3(CO)O[C@H]3[C@H]4[C@H]1O5)O2`, the IC50 in data set [1] was determined as 107 nM. For the same compound, in the data set with MT4, the CC50 amounted to 24200 nM.

Turning to `C=C(C)[C@]12C[C@@H](C)[C@]34OC5(CCCCCCC[C@@H](C)[C@@H]6[C@@H]3[C@@](O)(C(=O)[C@@]6(C)O)[C@H](O)[C@@]3(CO)O[C@H]3[C@H]4[C@H]1O5)O2`, the IC50 in data set [1] was 91.9 nM. For the same compound, in the data set on MT4, the CC50 is greater than 6500 nM.

Consider `C=C(C)[C@]12C[C@@H](C)[C@@]34OC5(CCCCCCC[C@@H](C)[C@H]6[C@H](C)C(=O)[C@@](O)([C@H](O)[C@@]7(CO)O[C@H]7[C@H]3[C@H]1O5)[C@@H]64)O2`, for which the IC50 in data set [1] came out at 38.5 nM. Further, the CC50 with MT4 is greater than 6500 nM.

As for `C=C(C)[C@]12C[C@@H](C)[C@@]34OC5(CCCCCCCC[C@H]6[C@H](C)C(=O)[C@@](O)([C@H](O)[C@@]7(CO)O[C@H]7[C@H]3[C@H]1O5)[C@@H]64)O2`, in data set [1], the IC50 is 36.3 nM. Moreover, in the data set on MT4, the half-maximal cytotoxic concentration (CC50) is greater than 6500 nM.

As to `C=C(C)[C@]12C[C@@H](COC(=O)c3ccccc3)[C@@]34OC5(CCCCC[C@@H](O)C[C@@H](C)[C@H]6[C@H](C)C(=O)[C@@](O)([C@H](O)[C@@]7(CO)O[C@H]7[C@H]3[C@H]1O5)[C@@H]64)O2`, the IC50 in data set [1] was determined as 69.2 nM. Also, the CC50 with MT4 was greater than 6500 nM.

With `C=C(C)[C@]12C[C@@H](COC(=O)c3ccccc3)[C@]34OC5(CCCCC[C@@H](OC(=O)c6ccccc6)C[C@@H](C)[C@@H]6[C@@H]3[C@]3(O[C@]6(C)OC3=O)[C@H](O)[C@@]3(CO)O[C@H]3[C@H]4[C@H]1O5)O2`, the IC50 in data set [1] worked out at 423 nM. Besides, the CC50 with MT4 was 5300 nM.

Turning to `C=C(C)[C@]12C[C@@H](COC(=O)c3ccccc3)[C@]34OC5(CCCCCCC[C@@H](C)[C@@H]6[C@@H]3[C@]3(O[C@]6(C)OC3=O)[C@H](O)[C@@]3(CO)O[C@H]3[C@H]4[C@H]1O5)O2`, the IC50 in data set [1] was 994 nM. In addition, the CC50 with MT4 was 21700 nM.
